Laboratory results published in patent publication US10662203B2, “Pyrido[2,3-b]indole compounds for the treatment and prophylaxis of bacterial infection” (Hoffmann-La Roche Inc., priority 2017, dated 2020).

Assays:
Assay in all cases: 50% growth inhibitory concentration (IC50) determination assay
Format in all cases: cell-based
[1] = system: K. pneumoniae (ATCC10031); settings: Klebsiella pneumoniae, Iso-Sensitest broth, 0.098 = detection limit
Description: (§1) Stock compounds in DMSO were serially two-fold diluted (range from 50 to 0.097 μM final concentration) in 384 wells microtiter plates and inoculated with 49 μL the bacterial suspension in Iso-Sensitest broth medium to have a final cell concentration of ˜5×10^5 CFU/mL in a final volume/well of 50 μL/well. Microtiter plates were incubated at 35±2° C. Bacterial cell growth was determined with the measurement of optical density at λ=600 nm each 20 minutes over a time course of 16 h. […] GP-6 (Example 4.131 disclosed in WO 2012/125746 A1) was used as the reference compound in Table 6-8. […] The data of IC50 over S. aureus (ATCC29213), K. pneumoniae (ATCC10031), and A. baumannii (ATCC17978) are illustrated in Table 6.

[2] = system: A. baumannii (ATCC17978); settings: Iso-Sensitest broth, 0.098 = detection limit
Description: as §1

[3] = system: S. aureus (ATCC29213); settings: Staphylococcus aureus, Iso-Sensitest broth, 0.098 = detection limit
Description: as §1

[4] = Acinetobacter baumannii, ATCC17978, A. baumannii ATCC17978

Row | Compound | IC50 [1] [µM] | IC50 [2, 4] [µM] | IC50 [3] [µM] | IC50 ([2]; A. baumannii ATCC17978) [µM]
1 | CNc1cc(F)c(F)c2c1[nH]c1ncc(-c3cnc4c(c3)c(=O)c(C(=O)O)cn4CCN(C)C)c(N3CCC(F)(F)C3)c12 [Example 2.02] | 0.167 | 0.992 | < 0.098 | –
2 | CNc1cc(F)c(F)c2c1[nH]c1ncc(-c3cnc4c(c3)c(=O)c(C(=O)O)cn4[C@@H]3CCNC3)c(N(C)C)c12 [Example 1.155] | < 0.098 | 0.328 | 3.8 | –
3 | CNc1cc(F)cc2c1[nH]c1ncc(-c3cnc4c(c3)c(=O)c(C(=O)O)cn4CC(C)(C)N(C)C)c(N3CCOCC3)c12 [Example 1.69] | < 0.098 | 0.438 | < 0.098 | –
4 | CNc1cc(F)c(F)c2c1[nH]c1ncc(-c3cnc4c(c3)c(=O)c(C(=O)O)cn4C)c(N3CCCC3)c12 [Example 1.208] | 0.16 | 0.78 | < 0.098 | –
5 | CNc1cc(F)c(F)c2c1[nH]c1ncc(-c3cnc4c(c3)c(=O)c(C(=O)O)cn4NC)c(N3CC[C@@H](N(C)C)C3)c12 [Example 1.257] | – | 0.201 | – | –
6 | CNc1cc(F)c(F)c2c1[nH]c1ncc(-c3cnc4c(c3)c(=O)c(C(=O)O)cn4C)c(N3CCN[C@@H](C(F)(F)F)C3)c12 [Example 4.01B, (R)-6-(5,6-Difluoro-8-(methylamino)-4-(3-(trifluoromethyl)piperazin-1-yl)-9H-pyrido[2,3-b]indol-3-yl)-1-methyl-4-oxo-1,4-dihydro-1,8-naphthyridine-3-carboxylic acid] | – | 0.352 | – | –
7 | CNc1cc(F)c(F)c2c1[nH]c1ncc(-c3cnc4c(c3)c(=O)c(C(=O)O)cn4C)c(N3CC4C(O)CO[C@@H]4C3)c12 (stereo partly shown) [Example 1.287] | – | 0.502 | – | –
8 | CNc1cc(F)c(F)c2c1[nH]c1ncc(-c3cnc4c(c3)c(=O)c(C(=O)O)cn4C)c(N3CC[C@@H](CN4CCOCC4)C3)c12 [Example 1.174] | 0.224 | 0.784 | < 0.098 | –
9 | CNc1cc(F)c(F)c2c1[nH]c1ncc(-c3cnc4c(c3)c(=O)c(C(=O)O)cn4[C@@H](C)CO)c(N3CCO[C@@H](C)C3)c12 [Example 1.250] | 0.14 | 0.476 | < 0.098 | –
10 | CCN(CC)CCn1cc(C(=O)O)c(=O)c2cc(-c3cnc4[nH]c5c(NC)cc(F)c(F)c5c4c3N3CCOCC3)cnc21 [Example 1.73] | < 0.098 | 0.238 | < 0.098 | –
11 | CNc1cc(F)c(F)c2c1[nH]c1ncc(-c3cnc4c(c3)c(=O)c(C(=O)O)cn4NC3CCOCC3)c(N(C)C)c12 [Example 1.91] | 0.165 | 0.237 | < 0.098 | –
12 | CNc1cc(F)cc2c1[nH]c1ncc(-c3cnc4c(c3)c(=O)c(C(=O)O)cn4C)c(N3CCC(F)(F)C3)c12 [Example 1.16] | < 0.098 | 0.308 | < 0.098 | –
13 | CNc1cc(F)c(F)c2c1[nH]c1ncc(-c3cnc4c(c3)c(=O)c(C(=O)O)cn4C)c(N3C[C@H](F)[C@@H](N(C)C)C3)c12 [Example 1.168] | < 0.098 | – | < 0.098 | 0.287
14 | CNc1cc(F)c(F)c2c1[nH]c1ncc(-c3cnc4c(c3)c(=O)c(C(=O)O)cn4C)c(N3C[C@@H]4OCCN(C)[C@H]4C3)c12 [Example 3.24A] | < 0.098 | 0.315 | < 0.098 | –
15 | CNc1cc(F)c(F)c2c1[nH]c1ncc(-c3cnc4c(c3)c(=O)c(C(=O)O)cn4C)c(N3CCN[C@H](C(F)(F)F)C3)c12 [Example 4.01A, (S)-6-(5,6-Difluoro-8-(methylamino)-4-(3-(trifluoromethyl)piperazin-1-yl)-9H-pyrido[2,3-b]indol-3-yl)-1-methyl-4-oxo-1,4-dihydro-1,8-naphthyridine-3-carboxylic acid] | – | 0.393 | – | –
16 | CNc1cc(F)c(F)c2c1[nH]c1ncc(-c3cnc4c(c3)c(=O)c(C(=O)O)cn4C)c(N3CC4[C@H](CC[C@@H]4N(C)C)C3)c12 (stereo partly shown) [Example 1.288] | – | 0.269 | – | –
17 | CNc1cc(F)c(F)c2c1[nH]c1ncc(-c3cnc4c(c3)c(=O)c(C(=O)O)cn4C)c(N3CCC(N(C)C4CC4)C3)c12 (stereo not shown) [Example 1.116] | – | 0.355 | – | –
18 | CNc1cc(F)cc2c1[nH]c1ncc(-c3cnc4c(c3)c(=O)c(C(=O)O)cn4C)c(N3CCC(N(C)C4CC4)C3)c12 (stereo not shown) [Example 1.118] | – | 0.521 | – | –
19 | CNc1cc(F)c(F)c2c1[nH]c1ncc(-c3cnc4c(c3)c(=O)c(C(=O)O)cn4C)c(N3CCC(O)(C(F)(F)F)C3)c12 (stereo not shown) [Example 1.129] | – | 0.302 | < 0.098 | –
20 | CNc1cc(F)c(F)c2c1[nH]c1ncc(-c3cnc4c(c3)c(=O)c(C(=O)O)cn4C)c(N3CCOC(COC)C3)c12 (stereo not shown) [Example 1.10] | – | 0.192 | – | –
21 | CNc1cc(F)c(F)c2c1[nH]c1ncc(-c3cnc4c(c3)c(=O)c(C(=O)O)cn4Cc3ccncc3)c(N(C)C)c12 [Example 1.30] | – | 0.242 | < 0.098 | –
22 | CNc1cc(Cl)cc2c1[nH]c1ncc(-c3cnc4c(c3)c(=O)c(C(=O)O)cn4C)c(N3CC4[C@H](CC[C@H]4N(C)C)C3)c12 (stereo partly shown) [Example 1.285] | – | 0.253 | – | –
23 | CNc1cc(Cl)cc2c1[nH]c1ncc(-c3cnc4c(c3)c(=O)c(C(=O)O)cn4C)c(N3C[C@@H]4CC[C@H](N(C)C)[C@@H]4C3)c12 [Example 3.20B] | – | 0.252 | – | –

Next, values leading:

Row | IC50 [1] [µM] | IC50 [2, 4] [µM] | IC50 [3] [µM] | IC50 ([2]; A. baumannii ATCC17978) [µM] | Compound
24 | < 0.098 | 0.048 | < 0.098 | – | CNc1cc(F)c(Cl)c2c1[nH]c1ncc(-c3cnc4c(c3)c(=O)c(C(=O)O)cn4C)c(N3CC[C@H]4CN(C)CC43)c12 (stereo partly shown) [Example 1.270]
25 | < 0.098 | 0.094 | < 0.098 | – | CNc1cc(Cl)cc2c1[nH]c1ncc(-c3cnc4c(c3)c(=O)c(C(=O)O)cn4C)c(N3C[C@@H]4CCN(C)[C@@H]4C3)c12 [Example 3.15B]
26 | < 0.098 | 0.172 | < 0.098 | – | CNc1cc(F)cc2c1[nH]c1ncc(-c3cnc4c(c3)c(=O)c(C(=O)O)cn4C)c(N3CCC(CNC4CC4)C3)c12 (stereo not shown) [Example 1.136]
27 | < 0.098 | 0.075 | < 0.098 | – | CNc1cc(F)c(F)c2c1[nH]c1ncc(-c3cnc4c(c3)c(=O)c(C(=O)O)cn4C)c(N3C[C@H]4OCCN(C)[C@H]4C3)c12 [Example 3.14A]
28 | < 0.098 | < 0.098 | < 0.098 | – | CNc1cc(F)c(F)c2c1[nH]c1ncc(-c3cnc4c(c3)c(=O)c(C(=O)O)cn4NC)c(N(C)C)c12 [Example 1.72]
29 | < 0.098 | 0.103 | < 0.098 | – | CNc1cc(F)cc2c1[nH]c1ncc(-c3cnc4c(c3)c(=O)c(C(=O)O)cn4C)c(N3CCC(NC4CC4)C3)c12 (stereo not shown) [Example 1.114]
30 | – | 0.081 | – | – | CNc1cc(Cl)cc2c1[nH]c1ncc(-c3cnc4c(c3)c(=O)c(C(=O)O)cn4NC)c(N3CC[C@H]4CN(C)C[C@H]43)c12 [Example 3.12A]
31 | – | 0.189 | – | – | CNc1cc(F)c(F)c2c1[nH]c1ncc(-c3cnc4c(c3)c(=O)c(C(=O)O)cn4C)c(N3C[C@H](F)[C@@H](N(C)C)C3)c12 [Example 1.159]
32 | – | 0.149 | – | – | CNc1cc(Cl)cc2c1[nH]c1ncc(-c3cnc4c(c3)c(=O)c(C(=O)O)cn4C)c(N3C[C@H]4CC[C@H](N(C)C)[C@H]4C3)c12 [Example 3.20A]
33 | – | 0.122 | – | – | CNc1cc(Cl)cc2c1[nH]c1ncc(-c3cnc4c(c3)c(=O)c(C(=O)O)cn4C)c(N3CC[C@H]4CN(C)C[C@H]43)c12 [Example 3.11A]
34 | – | 0.164 | – | – | CNc1cc(F)c(Cl)c2c1[nH]c1ncc(-c3cnc4c(c3)c(=O)c(C(=O)O)cn4C)c(N(C)C)c12 [Example 1.117]
